Assays:
JAK3 = target: T1, JAK3 (Homo sapiens, UniProt P52333); assay: Kinase inhibition assay, JAK3; conditions: biochemical potency;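 further: IC50 against purified truncated human JAK3 preincubated with compound, then reacted with ATP and ULight-Jak1 peptide, phosphorylation read by Europium-labeled antibody LANCE detection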
T1 construct: EGFR and JAK3 (JH1domain-catalytic) kinases, and mutant forms thereof; purchased Carna Biosciences

p-EGFR wildtype = target: T2, p-EGFR wildtype (Homo sapiens, UniProt P00533); assay: Western analysis, H1299 p-EGFR wildtype; format: cell-based; conditions: for IC50: molecular potency, 4 hours, 3 nM EGF ligand; for inhibition against p-EGFR wildtype (in words): Western, FIG. 1
T2 construct: endogenous in cells; host or cells: H1299

p-EGFR L858R/T790M = target: T3, p-EGFR L858R/T790M (Homo sapiens, UniProt P00533, L858R/T790M); assay: Western analysis, H1975 p-EGFR L858R/T790M; format: cell-based; conditions: for Selectivity over wildtype: p-wildtype over p-EGFR L858R, T790M: H1299 vs H1975; for IC50: molecular potency, 4 hours; for inhibition against p-EGFR L858R/T790M (in words): Western, FIG. 1
T3 construct: phosphorylation of mutant EGFR in NSCLC lines H1975; endogenous in cells; host or cells: H1975

EGFR mutant Del19/T790M = target: T4, EGFR mutant Del19/T790M (Homo sapiens, UniProt P00533, DEL746-750/T790M); assay: Kinase inhibition assay, EGFR del E746-A750/T790M; format: biochemical; conditions: read-out: EGFR mutants Del19/T790M
T4 construct: truncated human JAK3, EGFR mutants such as del E746-A750; purchased Carna Biosciences

p-EGFR del E746-A750 = target: T5, p-EGFR del E746-A750 (Homo sapiens, UniProt P00533, DEL746-750); assay: Western analysis, PC9 p-EGFR del E746-A750; format: cell-based; conditions: for Selectivity over wildtype: p-wildtype over p-EGFR del19: H1299 vs PC9; for IC50: molecular potency, 4 hours, read-out: PC9 p-EGFR del 19 (E746-A750); for inhibition against p-EGFR del E746-A750 (in words): Western, FIG. 1
T5 construct: phosphorylation of mutant EGFR in NSCLC lines PC9; endogenous in cells; host or cells: PC9

EGFR mutant L858R = target: T6, EGFR mutant L858R (Homo sapiens, UniProt P00533, L858R); assay: Kinase inhibition assay, EGFR L858R; format: biochemical; conditions: read-out: EGFR mutants L858R;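 further: truncated human EGFR L858R kinase with compound preincubation, ULight-PolyGT peptide phosphorylation read by Europium-antibody Lance detection, IC50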
T6 construct: truncated human JAK3, EGFR mutants such as del E746-A750; purchased Carna Biosciences

SYK = target: T7, SYK (Homo sapiens, UniProt P43405); assay: Kinase inhibition assay, SYK; format: biochemical; conditions: for IC50: biochemical potency;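 on all read-outs here: purified full-length human SYK pre-incubated 30 min with compound, then ULight-TK peptide phosphorylation for 1 h, detected with Europium-labeled antibody in Lance buffer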
T7 construct: Purified human, full-length SYK, KDR; purchased Carna Biosciences

KDR = target: T8, KDR (Homo sapiens, UniProt P35968); assay: Kinase inhibition assay, KDR; format: biochemical; conditions: for IC50: biochemical potency;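 on all read-outs here: purified full-length human KDR, 30 min preincubation with compound, then 1 h reaction with ATP and Ulight-Jak1 peptide substrate, phosphorylation read by Lance Europium antibody detection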
T8 construct: Purified human, full-length SYK, KDR; purchased Carna Biosciences

H2073 (EGFR wildtype) = assay: Cell viability assay, H2073; format: cell-based; conditions: for IC50: NCI-H2073, cellular potency, 72-hour incubation, ATPLite;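 on all read-outs here: NSCLC cell line whose survival relies on wildtype EGFR, treated with serially diluted compound, cytotoxic effect judged from remaining cell viability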
[1] = target: T9, EGFR mutant Del19 (E746-A750) (Homo sapiens, UniProt P00533, DEL746-750); assay: Kinase inhibition assay, EGFR del E746-A750; format: biochemical; conditions: read-out: EGFR mutants Del19 (E746-A750);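 further: truncated human EGFR mutant kinase, two-hour preincubation with compound, then one-hour reaction with ATP and ULight-PolyGT peptide, LANCE Europium-antibody phosphorylation readout, IC50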
T9 construct: truncated human JAK3, EGFR mutants such as del E746-A750; purchased Carna Biosciences

[2] = system: PC9 (EGFR del E746-A750 mutant); assay: Cell viability assay, PC9; format: cell-based; conditions: for Selectivity over wildtype, Wildtype vs mutant H2073/PC9 (fold): cellular potency ratio; for IC50: cellular potency, 72-hour incubation, ATPLite, read-out: EGFR Mutants PC9;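 on all read-outs here: NSCLC PC9 cells, whose viability relies on EGFR del E746-A750, exposed to serially diluted compound for 72 h at 37 °C, ATPLite read-out, IC50, H2073 as EGFR wildtype line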
[3] = system: H1975 (EGFR L858R/T790M mutant); assay: Cell viability assay, H1975; format: cell-based; conditions: for IC50: Homo sapiens, NCI-H1975, cellular potency, 72-hour incubation, ATPLite, read-out: EGFR Mutants H1975; for Selectivity over wildtype, Wildtype vs mutant H2073/H1975 (fold): cellular potency ratio;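 on all read-outs here: NSCLC cells whose survival relies on EGFR L858R/T790M, exposed 72 h to serially diluted compound, ATP-based viability readout, with the H2073 line (wildtype EGFR dependent) as wildtype comparator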
EGFR mutant L858R/T790M = target: T10, EGFR mutant L858R/T790M (Homo sapiens, UniProt P00533, L858R/T790M); assay: Kinase inhibition assay, EGFR L858R/T790M; format: biochemical; conditions: read-out: EGFR mutants L858R/T790M;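 further: truncated human enzyme preincubated two hours with compound, then one hour with one millimolar ATP and ULight-PolyGT peptide, Europium-labeled antibody detection, IC50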
T10 construct: truncated human JAK3, EGFR mutants such as del E746-A750; purchased Carna Biosciences

EGFR mutant T790M = target: T11, EGFR mutant T790M (Homo sapiens, UniProt P00533, T790M); assay: Kinase inhibition assay, EGFR mutant T790M; conditions: biochemical potency;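 further: truncated human EGFR mutant enzyme preincubated two hours with compound, then ATP plus ULight-PolyGT peptide for one hour, Europium-labeled antibody LANCE detection, IC50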
T11 construct: truncated human JAK3, EGFR mutants such as del E746-A750; purchased Carna Biosciences

[4] = approximate ATP Km concentration

T3 sequence (P00533 25-1210 T790M/L858R): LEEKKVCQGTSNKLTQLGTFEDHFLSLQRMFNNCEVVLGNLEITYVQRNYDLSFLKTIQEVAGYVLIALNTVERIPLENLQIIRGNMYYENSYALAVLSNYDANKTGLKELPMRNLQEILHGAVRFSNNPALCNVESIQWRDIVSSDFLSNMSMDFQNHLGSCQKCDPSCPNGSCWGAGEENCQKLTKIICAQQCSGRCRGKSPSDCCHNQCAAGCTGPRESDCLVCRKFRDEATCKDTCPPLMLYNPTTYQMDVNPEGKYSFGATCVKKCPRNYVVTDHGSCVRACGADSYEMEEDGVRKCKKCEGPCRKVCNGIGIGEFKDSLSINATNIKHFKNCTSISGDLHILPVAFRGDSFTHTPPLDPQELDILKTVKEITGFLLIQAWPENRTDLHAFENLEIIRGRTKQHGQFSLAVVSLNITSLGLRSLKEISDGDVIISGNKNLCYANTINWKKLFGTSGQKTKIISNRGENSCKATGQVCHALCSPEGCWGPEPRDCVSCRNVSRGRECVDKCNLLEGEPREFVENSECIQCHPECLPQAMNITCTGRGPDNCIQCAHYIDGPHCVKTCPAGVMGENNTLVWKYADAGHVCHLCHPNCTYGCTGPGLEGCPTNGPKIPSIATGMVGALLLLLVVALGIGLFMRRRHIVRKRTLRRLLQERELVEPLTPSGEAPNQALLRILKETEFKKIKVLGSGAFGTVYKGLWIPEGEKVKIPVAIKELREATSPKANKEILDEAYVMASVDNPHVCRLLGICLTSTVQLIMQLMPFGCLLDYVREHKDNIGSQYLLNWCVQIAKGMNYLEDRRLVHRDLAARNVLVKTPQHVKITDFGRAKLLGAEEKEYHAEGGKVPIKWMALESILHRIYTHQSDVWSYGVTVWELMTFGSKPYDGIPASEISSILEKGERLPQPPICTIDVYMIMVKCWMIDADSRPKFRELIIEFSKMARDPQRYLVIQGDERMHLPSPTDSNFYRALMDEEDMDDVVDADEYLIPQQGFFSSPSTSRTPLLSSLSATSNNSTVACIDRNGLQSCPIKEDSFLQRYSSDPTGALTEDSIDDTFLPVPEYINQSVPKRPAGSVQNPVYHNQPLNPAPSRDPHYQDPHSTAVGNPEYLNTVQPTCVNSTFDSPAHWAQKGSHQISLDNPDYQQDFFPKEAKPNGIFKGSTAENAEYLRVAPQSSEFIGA
T1 sequence (P52333 822-1111 limits assumed): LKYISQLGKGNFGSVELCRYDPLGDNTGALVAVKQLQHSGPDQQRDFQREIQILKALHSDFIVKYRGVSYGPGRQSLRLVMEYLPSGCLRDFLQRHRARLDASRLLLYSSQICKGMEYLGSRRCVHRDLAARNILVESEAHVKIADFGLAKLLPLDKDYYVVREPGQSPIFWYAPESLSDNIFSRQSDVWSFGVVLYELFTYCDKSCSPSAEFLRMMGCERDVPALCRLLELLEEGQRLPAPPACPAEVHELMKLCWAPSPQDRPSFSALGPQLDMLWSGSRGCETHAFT
T11 sequence (P00533 669-1210 T790M limits assumed): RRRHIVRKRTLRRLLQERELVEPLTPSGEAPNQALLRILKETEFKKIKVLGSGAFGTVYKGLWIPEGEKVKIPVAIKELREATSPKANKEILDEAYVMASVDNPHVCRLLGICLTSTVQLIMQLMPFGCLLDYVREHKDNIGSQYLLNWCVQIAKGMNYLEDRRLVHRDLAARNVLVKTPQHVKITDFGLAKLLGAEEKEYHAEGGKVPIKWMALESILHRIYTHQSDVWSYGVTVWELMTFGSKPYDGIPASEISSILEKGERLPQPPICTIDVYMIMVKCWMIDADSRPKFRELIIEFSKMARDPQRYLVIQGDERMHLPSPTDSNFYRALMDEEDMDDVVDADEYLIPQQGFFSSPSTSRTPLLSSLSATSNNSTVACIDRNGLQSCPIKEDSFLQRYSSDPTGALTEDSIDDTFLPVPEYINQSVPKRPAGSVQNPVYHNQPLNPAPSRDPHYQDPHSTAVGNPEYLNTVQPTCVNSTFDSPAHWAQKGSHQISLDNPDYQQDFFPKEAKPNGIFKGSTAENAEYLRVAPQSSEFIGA
T6 sequence (P00533 669-1210 L858R limits assumed): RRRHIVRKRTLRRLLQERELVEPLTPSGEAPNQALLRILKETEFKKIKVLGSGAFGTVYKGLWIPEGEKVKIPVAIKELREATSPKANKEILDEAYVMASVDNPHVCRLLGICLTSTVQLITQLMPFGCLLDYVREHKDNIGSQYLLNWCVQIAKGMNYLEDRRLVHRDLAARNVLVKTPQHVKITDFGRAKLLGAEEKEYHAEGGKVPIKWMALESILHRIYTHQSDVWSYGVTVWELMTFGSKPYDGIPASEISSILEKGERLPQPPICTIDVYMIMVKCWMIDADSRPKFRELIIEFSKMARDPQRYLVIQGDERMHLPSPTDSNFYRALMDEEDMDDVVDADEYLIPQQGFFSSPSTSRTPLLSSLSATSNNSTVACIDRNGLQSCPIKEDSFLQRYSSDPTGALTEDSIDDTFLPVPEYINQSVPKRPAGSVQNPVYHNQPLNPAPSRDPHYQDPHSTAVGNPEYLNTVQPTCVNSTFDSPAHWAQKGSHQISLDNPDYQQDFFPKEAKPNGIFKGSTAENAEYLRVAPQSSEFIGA
T4 sequence (P00533 with tags, fused parts or gaps DEL746-750/T790M limits assumed): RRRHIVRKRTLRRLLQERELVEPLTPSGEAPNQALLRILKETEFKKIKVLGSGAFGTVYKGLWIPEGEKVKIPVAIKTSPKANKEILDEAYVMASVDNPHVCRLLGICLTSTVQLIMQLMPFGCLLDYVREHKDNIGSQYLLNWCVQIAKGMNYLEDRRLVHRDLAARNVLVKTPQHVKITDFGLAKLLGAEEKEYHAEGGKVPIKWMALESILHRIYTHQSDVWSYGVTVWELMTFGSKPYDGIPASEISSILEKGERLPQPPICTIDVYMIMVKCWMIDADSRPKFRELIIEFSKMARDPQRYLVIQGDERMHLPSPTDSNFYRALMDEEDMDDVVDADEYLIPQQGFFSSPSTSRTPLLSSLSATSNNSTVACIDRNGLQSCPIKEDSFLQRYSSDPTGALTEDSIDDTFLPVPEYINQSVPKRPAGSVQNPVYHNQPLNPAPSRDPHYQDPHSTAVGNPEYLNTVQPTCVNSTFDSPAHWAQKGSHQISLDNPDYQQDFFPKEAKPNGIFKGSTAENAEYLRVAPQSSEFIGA
T5 sequence (P00533 with tags, fused parts or gaps DEL746-750): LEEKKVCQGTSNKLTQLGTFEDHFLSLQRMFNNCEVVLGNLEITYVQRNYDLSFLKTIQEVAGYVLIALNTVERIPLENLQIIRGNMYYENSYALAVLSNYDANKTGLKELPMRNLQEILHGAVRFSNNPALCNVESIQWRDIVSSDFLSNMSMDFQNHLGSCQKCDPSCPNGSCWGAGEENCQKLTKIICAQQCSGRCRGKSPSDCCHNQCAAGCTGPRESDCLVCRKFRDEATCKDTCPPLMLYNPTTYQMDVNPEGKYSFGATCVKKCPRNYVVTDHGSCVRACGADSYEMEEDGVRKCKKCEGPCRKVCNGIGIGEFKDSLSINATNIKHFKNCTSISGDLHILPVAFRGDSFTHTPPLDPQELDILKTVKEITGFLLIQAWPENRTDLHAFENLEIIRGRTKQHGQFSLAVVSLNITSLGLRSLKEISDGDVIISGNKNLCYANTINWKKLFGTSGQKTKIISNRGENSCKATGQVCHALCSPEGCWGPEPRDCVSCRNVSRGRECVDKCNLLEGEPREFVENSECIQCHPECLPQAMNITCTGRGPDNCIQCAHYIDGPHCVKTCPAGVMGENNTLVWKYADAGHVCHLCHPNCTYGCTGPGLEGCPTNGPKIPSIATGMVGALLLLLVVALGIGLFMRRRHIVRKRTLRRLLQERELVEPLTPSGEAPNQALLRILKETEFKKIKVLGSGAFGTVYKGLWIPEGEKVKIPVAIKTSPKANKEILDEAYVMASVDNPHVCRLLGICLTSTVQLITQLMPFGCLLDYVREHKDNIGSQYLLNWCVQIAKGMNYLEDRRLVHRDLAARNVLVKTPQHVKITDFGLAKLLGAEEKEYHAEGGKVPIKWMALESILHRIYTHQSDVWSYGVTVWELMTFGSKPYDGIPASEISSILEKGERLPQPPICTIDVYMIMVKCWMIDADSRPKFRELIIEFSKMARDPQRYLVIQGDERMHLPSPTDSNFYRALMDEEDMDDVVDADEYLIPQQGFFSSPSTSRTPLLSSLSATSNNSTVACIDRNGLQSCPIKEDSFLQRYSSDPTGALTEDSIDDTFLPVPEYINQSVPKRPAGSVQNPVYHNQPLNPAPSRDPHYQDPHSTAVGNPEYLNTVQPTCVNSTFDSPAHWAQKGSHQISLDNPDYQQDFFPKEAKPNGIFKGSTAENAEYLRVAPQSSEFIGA
T10 sequence (P00533 669-1210 T790M/L858R limits assumed): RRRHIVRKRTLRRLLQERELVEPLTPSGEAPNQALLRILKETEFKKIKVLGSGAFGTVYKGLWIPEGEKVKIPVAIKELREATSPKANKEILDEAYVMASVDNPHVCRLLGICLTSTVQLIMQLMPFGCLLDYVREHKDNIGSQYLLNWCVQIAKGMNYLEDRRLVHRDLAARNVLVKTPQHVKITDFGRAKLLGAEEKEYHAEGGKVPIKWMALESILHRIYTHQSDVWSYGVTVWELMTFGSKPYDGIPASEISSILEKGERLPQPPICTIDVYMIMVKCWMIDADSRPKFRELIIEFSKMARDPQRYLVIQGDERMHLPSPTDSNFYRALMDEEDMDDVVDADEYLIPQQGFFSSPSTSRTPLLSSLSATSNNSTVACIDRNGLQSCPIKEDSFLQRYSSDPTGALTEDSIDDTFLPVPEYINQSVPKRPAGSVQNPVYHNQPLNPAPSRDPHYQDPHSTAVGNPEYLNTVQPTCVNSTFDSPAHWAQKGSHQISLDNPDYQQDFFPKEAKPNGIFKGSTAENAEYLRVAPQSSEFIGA

Row | Compound | IC50 (JAK3) [nM] | IC50 (p-EGFR wildtype) [nM] | Selectivity over wildtype: p-wildtype over p-EGFR L858R, T790M (p-EGFR L858R/T790M) | IC50 (p-EGFR L858R/T790M) [nM] | IC50 (EGFR mutant Del19/T790M) [nM] | Selectivity over wildtype: p-wildtype over p-EGFR del19 (p-EGFR del E746-A750) | IC50 (p-EGFR del E746-A750) [nM] | IC50 (EGFR mutant L858R) [nM] | IC50 (SYK) [nM] | IC50 (KDR) [nM] | IC50 (H2073 (EGFR wildtype)) [nM] | IC50 [1] [nM] | IC50 [2] [nM] | IC50 [3] [nM] | IC50 (EGFR mutant L858R/T790M) [nM] | IC50 (EGFR mutant T790M) [nM] | Selectivity over wildtype, Wildtype vs mutant H2073/PC9 (fold) [2] | Selectivity over wildtype, Wildtype vs mutant H2073/H1975 (fold) [3] | also measured
1 | C=CC(=O)Nc1cc(Nc2ncc(C)c(-n3cc(CN4C[C@H](O)[C@H](OC)C4)c(C)n3)n2)c(OC)cc1N1CCOCC1 [Compound 26, N-(5-(4-(4-(((3S,4R)-3-hydroxy-4-methoxypyrrolidin-1-yl)methyl)-3-methyl-1H-pyrazol-1-yl)-5-methylpyrimidin-2-ylamino)-4-methoxy-2-morpholinophenyl)acrylamide] | < 20 | > 1000 | >200 fold | < 20 | < 20 | >200 fold | < 20 | < 20 | 201 to 1000 | > 1000 | > 1000 | < 20 | 20 to 200 | 20 to 200 | < 20 | < 20 | 20-100 fold | 101-200 fold | inhibition against p-EGFR wildtype (in words) (p-EGFR wildtype): not p-EGFR wildtype; Selectivity over wildtype: p-wildtype over p-EGFR L858R, T790M (p-EGFR L858R/T790M; listed as compound 26): 1440.3 fold; inhibition against p-EGFR L858R/T790M (in words) (p-EGFR L858R/T790M): potent inhibition; Selectivity over wildtype: p-wildtype over p-EGFR del19 (p-EGFR del E746-A750; listed as compound 26): 572.4 fold; inhibition against p-EGFR del E746-A750 (in words) (p-EGFR del E746-A750): potent inhibition
2 | C=CC(=O)Nc1cc(Nc2nccc(-n3cc(CN(C)C)c(-c4ccccc4)n3)n2)c(OC)cc1N1CCOCC1 [Compound 73, N-(5-(4-(4-((dimethylamino)methyl)-3-phenyl-1H-pyrazol-1-yl)pyrimidin-2-ylamino)-4-methoxy-2-morpholinophenyl)acrylamide] | < 20 | 201 to 1000 | 20-100 fold | < 20 | < 20 | 20-100 fold | < 20 | < 20 | 201 to 1000 | > 1000 | > 1000 | < 20 | < 20 | < 20 | < 20 | < 20 | >200 fold | >200 fold | inhibition against p-EGFR wildtype (in words) (p-EGFR wildtype): not p-EGFR wildtype; inhibition against p-EGFR L858R/T790M (in words) (p-EGFR L858R/T790M): potent inhibition; inhibition against p-EGFR del E746-A750 (in words) (p-EGFR del E746-A750): potent inhibition; inhibition of the kinase activity of SYK (in words) (SYK; [4]): poorly inhibit; inhibition of the kinase activity of KDR (in words) (KDR; [4]): poorly inhibit; inhibition in H2073 cell (in words) (H2073 (EGFR wildtype); cell viability): not in H2073; inhibition in PC9 cell (in words) ([2]; cell viability): potent inhibition; Selectivity over wildtype, Wildtype vs mutant H2073/PC9 (fold) ([2]; listed as compound 73): > 200 fold; inhibition in H1975 cell (in words) ([3]; cell viability): potent inhibition; Selectivity over wildtype, Wildtype vs mutant H2073/H1975 (fold) ([3]; listed as compound 73): > 200 fold
3 | C=CC(=O)Nc1cc(Nc2nccc(-n3cc(CN(C)C)c(C4CC4)n3)n2)c(OC)cc1N1CCOCC1 [Compound 74, N-(5-(4-(3-cyclopropyl-4-((dimethylamino)methyl)-1H-pyrazol-1-yl)pyrimidin-2-ylamino)-4-methoxy-2-morpholinophenyl)acrylamide] | < 20 | 201 to 1000 | 20-100 fold | < 20 | < 20 | 101-200 fold | < 20 | < 20 | 20 to 200 | > 1000 | > 1000 | < 20 | < 20 | < 20 | < 20 | < 20 | >200 fold | >200 fold | 
4 | C=CC(=O)Nc1cc(Nc2nccc(-n3cc(CN4CCC4)c(-c4ccccc4)n3)n2)c(OC)cc1N1CCOCC1 [Compound 78, N-(5-(4-(4-(azetidin-1-ylmethyl)-3-phenyl-1H-pyrazol-1-yl)pyrimidin-2-ylamino)-4-methoxy-2-morpholinophenyl)acrylamide] | 20 to 200 | > 1000 | 101-200 fold | < 20 | < 20 | >200 fold | < 20 | < 20 | > 1000 | > 1000 | > 1000 | < 20 | < 20 | < 20 | < 20 | < 20 | >200 fold | >200 fold | 
5 | C=CC(=O)Nc1cc(Nc2ncc(C)c(-n3cc(CN(C)C)c(C4CC4)n3)n2)c(OC)cc1N1CCOCC1 [Compound 122, N-(5-(4-(3-cyclopropyl-4-((dimethylamino)methyl)-1H-pyrazol-1-yl)-5-methylpyrimidin-2-ylamino)-4-methoxy-2-morpholinophenyl)acrylamide] | < 20 | 201 to 1000 | 20-100 fold | < 20 | < 20 | 20-100 fold | < 20 | < 20 | 20 to 200 | > 1000 | > 1000 | < 20 | < 20 | < 20 | < 20 | < 20 | >200 fold | >200 fold | 

More lines, main results first:

Row | IC50 (JAK3) [nM] | IC50 (p-EGFR wildtype) [nM] | Selectivity over wildtype: p-wildtype over p-EGFR L858R, T790M (p-EGFR L858R/T790M) | IC50 (p-EGFR L858R/T790M) [nM] | IC50 (EGFR mutant Del19/T790M) [nM] | Selectivity over wildtype: p-wildtype over p-EGFR del19 (p-EGFR del E746-A750) | IC50 (p-EGFR del E746-A750) [nM] | IC50 (EGFR mutant L858R) [nM] | IC50 (SYK) [nM] | IC50 (KDR) [nM] | IC50 (H2073 (EGFR wildtype)) [nM] | IC50 [1] [nM] | IC50 [2] [nM] | IC50 [3] [nM] | IC50 (EGFR mutant L858R/T790M) [nM] | IC50 (EGFR mutant T790M) [nM] | Compound | Selectivity over wildtype, Wildtype vs mutant H2073/PC9 (fold) [2] | Selectivity over wildtype, Wildtype vs mutant H2073/H1975 (fold) [3] | also measured
6 | < 20 | > 1000 | 20-100 fold | < 20 | < 20 | >200 fold | < 20 | < 20 | 201 to 1000 | > 1000 | > 1000 | < 20 | < 20 | 20 to 200 | < 20 | < 20 | C=CC(=O)Nc1cc(Nc2nccc(-n3cc(CN4CCC4)c(C)n3)n2)c(OC)cc1N1CCOCC1 [Compound 14, N-(5-(4-(4-(azetidin-1-ylmethyl)-3-methyl-1H-pyrazol-1-yl)pyrimidin-2-ylamino)-4-methoxy-2-morpholinophenyl)acrylamide] | >200 fold | 20-100 fold | 
7 | < 20 | 20 to 200 | 20-100 fold | < 20 | < 20 | 20-100 fold | < 20 | < 20 | 201 to 1000 | > 1000 | > 1000 | < 20 | < 20 | 20 to 200 | < 20 | < 20 | C=CC(=O)Nc1cc(Nc2nccc(-n3cc(CN(C)C)c(C)n3)n2)c(OC)cc1N1CCOCC1 [Compound 46, N-(5-(4-(4-((dimethylamino)methyl)-3-methyl-1H-pyrazol-1-yl)pyrimidin-2-ylamino)-4-methoxy-2-morpholinophenyl)acrylamide] | >200 fold | 101-200 fold | 
